# Assay results taken from patent US8048455B2, “Treatment of cancer and inflammatory disorder” (Academia Sinica, priority 2006, dated 2011).
# Experiments:
# [1] = test system: human COX-2 promoter; assay: COX-2 promoter-driven luciferase reporter assay in TPA-treated B16 melanoma cells; format: cell-based, murine; conditions: for Suppression of full-length COX-2 promoter activity vs TPA only: TPA 50 ng/mL 6 h
# From the text: A double-mutated COX-2 promoter containing mutations on both NF-κB sites was also constructed (FIG. 2). PPGL-3-Basic vector was used as a negative control in luciferase assays. COX-2 reporter activity in arbitrary units (AU) was normalized to that for the Renilla luciferase reporter.
# Murine melanoma B-16 cells co-transfected with the full-length pCOX-2-Luc and internal control plasmid pRL-TK-Luc plasmid constructs were stimulated without (control) or with TPA, in the absence or presence of the indicated concentrations of CREa8. An amount of 10 μg of total protein lysate was subjected to dual luciferase reporter assay. The induction fold of COX promoter activity by TPA treatment only is presented as 100%. The statistical analyses between […] and CREa8, aspirin, or indomethacin (Indo.) treatment were performed using Student's t-test.
# B-16 cells were co-transfected with the full-length pCOX-2-Luc and internal control Renilla pRL-TK-Luc plasmid constructs with the LIPOFECTAMINE reagent (Invitrogen). The cells were then stimulated with vehicle (0.001% DMSO) or with 50 ng/mL TPA, in the absence or presence of dLGG for 6 hours. Ten μg of total protein lysate prepared with Passive Lysis Buffer (Promega) was subjected to dual luciferase reporter assay. The induction fold of COX-2 promoter activity by TPA treatment only is presented as 100%.
# The contribution of specific cis-acting element binding sites on the transcription of COX-2 was examined. Data were obtained from 2 to 3 experiments with 3 to 6 replicates and expressed as mean±SD. Two-way ANOVA was used to analyze significance of differences.
# [2] = test system: iNOS mRNA; assay: iNOS mRNA expression (RT-PCR) in LPS-stimulated RAW264.7 cells; format: cell-based, murine; conditions: LPS 1 μg/mL 6 h
# Procedure: For each RT-PCR analysis, 2 μg of total RNA isolated with TRIZOL® Reagent was used to synthesize 1st-strand cDNA using […]™ II Reverse Transcriptase (Invitrogen). The iNOS and COX-2 genes were amplified and analyzed using specific oligonucleotide primers and PCR reactions by method described in Chiang et al. Br J Pharmacol 2005; 146:352-63).
# RAW264.7 cells were treated with various concentrations of dLGG for 1 hour, then incubated with LPS (1 μg/mL) for 6 hours. Total cellular RNA was subjected to RT-PCR, and final PCR product resolved by 1% agarose gel electrophoresis.
# [3] = test system: NO; assay: Plasma nitrite concentration in SNP-treated mice; format: in vivo, Female ICR mice; conditions: topical pretreatment 30 min before SNP; dLGG 10 mg/site, PTIO 3.5 mg/site
# Procedure: Female ICR mice were topically treated on their shaven back area of a 2-cm diameter (3.14 cm^2/site/mouse) with vehicle control (acetone), SNP (positive control), or with dLGG or PTIO for 30 minutes before SNP application. Mouse plasma samples were subjected to determine the nitrite content followed a published method (Moshage et al. Clin Chem 1995; 41:892-6).
# To examine the capability of dLGG to scavenge NO in vivo, the plasma NO concentration in SNP-insulted mice was determined with or without pretreatment with dLGG. Female ICR mice were transdermally treated with 200 μL acetone (vehicle control) or SNP (5.96 mg/site) only for 15 minutes, or pre-treated with dLGG (10 mg/site) or PTIO (3.5 mg/site) for 30 minutes before SNP treatment.
# [4] = test system: IKKα/β; assay: IKKα/β phosphorylation, IRAK-1 degradation and IKK kinase assay in LPS-stimulated RAW 264.7 cells; format: cell-based, murine
# Procedure: Whole cell lysates (300 μg) of macrophages were pre-cleaned by incubation with 0.25 μg IgG and 20 μL protein A/G plus agarose beads (Santa Cruz) for 30 minutes at 4° C. Supernatants were then collected and incubated with IKKα/β antibody and protein A/G plus agarose beads at 4° C. overnight. Precipitates were washed with an IP buffer and a kinase buffer. IKK kinase activity was assayed by adding 1 μg of GST-IκBα fusion protein (Santa Cruz) and 200 μM ATP in 20 μL kinase buffer for 30 minutes at 30° C. and then stopped by mixing with the Laemmli's loading buffer and heated at 100° C. for 5 minutes. Samples were then subjected to immunoblotting.
# Assays were carried out in RAW 264.7 cells to examine the effects of dLGG on levels of IKKα/β and phospho-IKKα/β, the upstream kinase of IκBα in the NF-κB signaling pathway, and the upstream kinase, IRAK-1, for activating IKK complex. Cells were pretreated with various concentrations of dLGG for 1 hours, followed by LPS stimulation (1 μg/mL for 30 min). Specific IKKα/β and the phosphorylated forms of IKKα/β or GST-IκBα were detected by immunoblotting. IKKα/β immunoprecipitates were prepared from total cell lysate using anti-IKKα/β antibody and subsequently subjected to IKK kinase assay using GST-IκBα as substrate. […] (nuclear protein) and α-tubulin (cytosolic protein) were used as loading controls.
# IKK enzymatic activity was also determined to confirm whether it was correlated to the inhibition of IκBα phosphorylation by dLGG. Immunoprecipitated IKK proteins obtained from control cells (±LPS/−dLGG) or cells treated with LPS+dLGG were assayed for phosphorylation of GST-IκBα. The LPS-induced enzymatic phosphorylation of IκBα (p-IκBα) was decreased approximately 42% when treated with 75 μg/mL dLGG. The levels of immunoprecipitated IKK proteins were not affected by dLGG.
# [5] = test system: PGE2 production; assay: LPS-induced PGE2 production in RAW 264.7 macrophages; format: cell-based, murine; conditions: doses between 25 and 75 μg/mL
# Procedure: PGE2 production was determined according to the procedure described in Chiang et al. Br J Pharmacol 2005; 146:352-63. Macrophages were pretreated with aspirin (500 μM, 3 h) to inactivate endogenous cyclooxygenase-1, washed, and incubated with test compounds for 1 hour before further incubation for 16 hours with or without LPS. PGE2 in the culture media was determined with ACE™ Competitive Enzyme Immunoassay (Cayman Chemical).
# The above-mentioned test compounds were incubated with COX-2 enzyme and substrates before measuring the COX-2 activity. Celecoxib, a potent nonsteroidal anti-inflammatory drug (NSAID), was used as a positive control. […] The IC50 of the nonsteroidal anti-inflammatory drug celecoxib, used as a positive control, was 0.47 μg/mL. RAW 264.7 cells (1×10^4 cells/well) were treated with dLGG and then stimulated with LPS, and PGE2 in the culture medium was then measured.
# [6] = test system: LPS binding to LPS receptors on macrophages; assay: Binding of FITC-labeled LPS to macrophages; format: cell-based, murine
compound,measurement,setting,value
"CC/C=C\C/C=C\C/C=C\CCCCCCCC(=O)OC[C@H](CO[C@@H]1O[C@H](CO)[C@H](O)[C@H](O)[C@H]1O)OC(=O)CCCCCCC/C=C\C/C=C\C/C=C\CC [dLGG, 1,2-di-O-α-linolenoyl-3-O-β-galactopyranosyl-sn-glycerol]",Suppression of full-length COX-2 promoter activity vs TPA only,"[1]; 50 μg/mL, B16 cells",20%
same,TPA-induced luciferase activity of −1334/−1 and −646/−1 promoter constructs (smaller),"[1]; 100 μg/mL, B16 cells",65-68%
same,Suppression of full-length COX-2 promoter activity vs TPA only,"[1]; 100 μg/mL, B16 cells",33%
same,"TPA-activated increases in luciferase activity, truncated promoter constructs","[1]; 100 μg/mL, all transfected cells",able to fully inhibit
same,"TPA-induced COX-2 promoter activity in mutant promoter constructs (CRE, NF-IL6, NF-κB)",[1]; B16 cells,able to suppress
same,Reduction of iNOS mRNA expression,[2],approximately 56%
same,SNP-induced increase of nitrite plasma concentration,[3],suppressed
same,"Decrease of LPS-induced enzymatic phosphorylation of IκBα (IKK kinase assay, GST-IκBα)",[4]; 75 μg/mL,approximately 42%
same,IRAK-1 degradation in LPS-stimulated macrophages,[4]; LPS-stimulated,inhibited
same,IKKα/β levels,"[4]; dLGG 1 h, LPS 1 μg/mL 30 min",little affected
same,LPS-induced phosphorylation of IKKα/β,"[4]; dLGG 1 h, LPS 1 μg/mL 30 min",inhibited
same,Reduction of LPS-induced PGE2 levels,[5],37-58%
same,Binding of FITC-labeled LPS to the test macrophages,[6],dose-dependently suppress
